The record followed here is PubChem BioAssay AID330 (DTP/NCI, 2004).

The assay has as its system P388 leukemia ip, CD2F1 mice, survival T/C. Nature of the assay: NCI In Vivo Anticancer Drug Screen. Data for tumor model P388 Leukemia (intraperitoneal) in CD2F1 (CDF1) mice. The settings on record: endpoint: median survival time, higher = longer survival. In a few lines:
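Mice carrying the transplanted tumor received test compound or vehicle. Survival was recorded in each group, and the value is the treated-group measurement divided by that of the vehicle-treated control group.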

The mark [1] stands for this setting: dose: 50.0 mg/kg/injection, schedule: Q01DX009 (ip), vehicle: saline with Tween-80.
Where [2] appears, read: dose: 100.0 mg/kg/injection, schedule: Q01DX009 (ip), vehicle: saline with Tween-80.
[3] abbreviates: dose: 60.0 mg/kg/injection, schedule: Q01DX005 (ip), vehicle: saline with Tween-80.
The mark [4] stands for this setting: dose: 200.0 mg/kg/injection, schedule: Q01DX009 (ip), vehicle: saline with Tween-80.
Where [5] appears, read: dose: 25.0 mg/kg/injection, schedule: Q01DX009 (ip), vehicle: saline with Tween-80.
The mark [6] stands for this setting: dose: 50.0 mg/kg/injection, schedule: Q01DX005 (ip), vehicle: Klucel (hydroxypropylcellulose) (HPC).
[7] abbreviates: dose: 100.0 mg/kg/injection, schedule: Q01DX005 (ip), vehicle: Klucel (hydroxypropylcellulose) (HPC).
Where [8] appears, read: dose: 200.0 mg/kg/injection, schedule: Q01DX005 (ip), vehicle: Klucel (hydroxypropylcellulose) (HPC).
Where [9] appears, read: dose: 120.0 mg/kg/injection, schedule: Q01DX005 (ip), vehicle: saline with Tween-80.
[10] abbreviates: dose: 240.0 mg/kg/injection, schedule: Q01DX005 (ip), vehicle: saline with Tween-80.
Where [11] appears, read: dose: 50.0 mg/kg/injection, schedule: Q01DX005 (ip), vehicle: saline with Tween-80.
Where [12] appears, read: dose: 100.0 mg/kg/injection, schedule: Q01DX005 (ip), vehicle: saline with Tween-80.

Values joined by “and” are separate entries in the source; they are usually repeats but may differ in a detail not shown here. Equal values may be shown once. Inconclusive results and toxic doses are left out.

With `CS(=O)(=O)OCCN(CCOS(C)(=O)=O)c1ccc(/C=N/Nc2ncnc3nc[nH]c23)cc1`, the T/C reads like this: under setting [1], 172 % of control; (dose: 66.0 mg/kg/injection, schedule: Q04DX003 (ip), vehicle: saline with Tween-80) 177 % of control; under setting [2], 181 % of control; (dose: 100.0 mg/kg/injection, schedule: Q04DX003 (ip), vehicle: saline with Tween-80) 177 % of control; (dose: 150.0 mg/kg/injection, schedule: Q04DX003 (ip), vehicle: saline with Tween-80) 195 % of control.

For the molecule `CCN(CC)CCNC(=O)c1noc2cc([N+](=O)[O-])ccc12`, the T/C was 109 % of control (dose: 12.5 mg/kg/injection, schedule: Q01DX005 (ip), vehicle: saline); 115 % of control (dose: 25.0 mg/kg/injection, schedule: Q01DX005 (ip), vehicle: saline); 103 % of control and 97 % of control (dose: 50.0 mg/kg/injection, schedule: Q01DX005 (ip), vehicle: saline).

Take `C=C(C)[C@H]1C[C@@H]2O[C@]2(C)[C@@H](O)C1`: the T/C is 94 % of control (dose: 100.0 mg/kg/injection, schedule: Q04DX002 (ip), vehicle: saline); 102 % of control (dose: 200.0 mg/kg/injection, schedule: Q04DX002 (ip), vehicle: saline); 96 % of control (dose: 400.0 mg/kg/injection, schedule: Q04DX002 (ip), vehicle: saline).

Turning to `O=C(NCCCl)Nc1[nH]c(=O)ncc1I`, the T/C reads like this: (dose: 1.88 mg/kg/injection, schedule: Q01DX005 (ip), vehicle: saline with Tween-80) 101 % of control; (dose: 3.75 mg/kg/injection, schedule: Q01DX005 (ip), vehicle: saline with Tween-80) 101 % of control; (dose: 7.5 mg/kg/injection, schedule: Q01DX005 (ip), vehicle: saline with Tween-80) 100 % of control; under setting [3], 95 % of control.

Turning to `[B-]1n2ccc[n+]2[B-]n2ccc[n+]21`, the T/C reads like this: (dose: 15.0 mg/kg/injection, schedule: Q01DX005 (ip), vehicle: saline with Tween-80) 100 % of control; (dose: 30.0 mg/kg/injection, schedule: Q01DX005 (ip), vehicle: saline with Tween-80) 100 % of control; under setting [3], 98 % of control.

In the case of `CCOC(=O)C(CC)c1ccccc1` (stereo not drawn), the T/C under setting [1] was 99 % of control, the T/C under setting [2] was 102 % of control and the T/C under setting [4] is 112 % of control.

`CCOC(=O)NN(C(=O)OCC)C(C)(C)C(C)=O`: the T/C runs as follows: (dose: 100.0 mg/kg/injection, schedule: Q01DX001 (ip), vehicle: saline) 100 % of control; (dose: 200.0 mg/kg/injection, schedule: Q01DX001 (ip), vehicle: saline) 100 % of control and 106 % of control; (dose: 400.0 mg/kg/injection, schedule: Q01DX001 (ip), vehicle: saline) 100 % of control and 108 % of control.

With `c1ccc2c(c1)Sc1ccccc1N2CCCNC1=NCCO1`, the T/C reads like this: (dose: 12.5 mg/kg/injection, schedule: Q04DX003 (ip), vehicle: saline with Tween-80) 94 % of control; (dose: 25.0 mg/kg/injection, schedule: Q04DX003 (ip), vehicle: saline with Tween-80) 96 % of control; (dose: 50.0 mg/kg/injection, schedule: Q04DX003 (ip), vehicle: saline with Tween-80) 87 % of control; (dose: 200.0 mg/kg/injection, schedule: Q04DX003 (ip), vehicle: saline with Tween-80) 88 % of control; (dose: 400.0 mg/kg/injection, schedule: Q04DX003 (ip), vehicle: saline with Tween-80) 90 % of control.

As for `O=C1CCSC(=S)N1c1ccc(Cl)c([N+](=O)[O-])c1`, the T/C was 87 % of control under setting [5]; 97 % of control (dose: 25.0 mg/kg/injection, schedule: Q01DX009 (ip), vehicle: saline); 88 % of control under setting [1]; 104 % of control (dose: 50.0 mg/kg/injection, schedule: Q01DX009 (ip), vehicle: saline); 103 % of control (dose: 50.0 mg/kg/injection, schedule: Q01DX009 (ip), vehicle: suspension in saline); 98 % of control under setting [2]. In addition, the T/C was 97 % of control (dose: 100.0 mg/kg/injection, schedule: Q01DX009 (ip), vehicle: saline); 109 % of control (dose: 100.0 mg/kg/injection, schedule: Q01DX009 (ip), vehicle: suspension in saline); 115 % of control under setting [4]; 97 % of control (dose: 200.0 mg/kg/injection, schedule: Q01DX009 (ip), vehicle: saline).

As to `CCCCCCCCCCCCCCCCOc1cccc(/C(=N/NS(C)(=O)=O)N2CCCCC2)c1`, the T/C is 89 % of control (dose: 50.0 mg/kg/injection, schedule: Q01DX009 (ip), vehicle: Klucel (hydroxypropylcellulose) (HPC)); 92 % of control (dose: 100.0 mg/kg/injection, schedule: Q01DX009 (ip), vehicle: Klucel (hydroxypropylcellulose) (HPC)); 91 % of control (dose: 200.0 mg/kg/injection, schedule: Q01DX009 (ip), vehicle: Klucel (hydroxypropylcellulose) (HPC)).

For the molecule `Cc1cccc2nccn12`, the T/C (dose: 6.25 mg/kg/injection, schedule: Q01DX009 (ip), vehicle: saline with Tween-80) is 97 % of control; the T/C (dose: 12.5 mg/kg/injection, schedule: Q01DX009 (ip), vehicle: saline with Tween-80) is 95 % of control; the T/C under setting [5] was 97 % of control; the T/C under setting [1] is 100 % of control.

Turning to `CC(=O)[C@H]1C[C@H](O)[C@H]2[C@@H]3CCC4=CC(=O)CC[C@]4(C)[C@H]3C[C@@H](O)[C@@]21C`, the T/C under setting [6] was 100 % of control, the T/C under setting [7] was 100 % of control and the T/C under setting [8] is 97 % of control.

Take `O=C(Nc1ccc(Cl)cc1Cl)c1ccc2c(c1)C(=O)OC2=O`: the T/C is 98 % of control under setting [3], 89 % of control under setting [9] and 86 % of control under setting [10].

Consider `COc1cccc2c1C(=O)c1c(O)c3c(c(O)c1C2=O)CC(O)(/C(C)=N/NC(=O)C(=O)N/N=C(\C)C1(O)Cc2c(O)c4c(c(O)c2C(OC2CC(N)C(O)C(C)O2)C1)C(=O)c1c(OC)cccc1C4=O)CC3OC1CC(N)C(O)C(C)O1` (stereo not drawn), for which the T/C was 163 % of control and 166 % of control (dose: 1.56 mg/kg/injection, schedule: Q01DX009 (ip), vehicle: water); 180 % of control and 182 % of control (dose: 3.13 mg/kg/injection, schedule: Q01DX009 (ip), vehicle: water); 184 % of control and 219 % of control (dose: 6.25 mg/kg/injection, schedule: Q01DX009 (ip), vehicle: water); 88 % of control and 94 % of control (dose: 12.5 mg/kg/injection, schedule: Q01DX009 (ip), vehicle: water).

Regarding `CC(C)=CCC/C(C)=C/CSC#N`, the T/C (dose: 25.0 mg/kg/injection, schedule: Q01DX005 (ip), vehicle: saline with Tween-80) is 102 % of control; the T/C under setting [11] is 105 % of control; the T/C under setting [12] is 111 % of control; the T/C (dose: 200.0 mg/kg/injection, schedule: Q01DX005 (ip), vehicle: saline with Tween-80) was 104 % of control.

As to `Cc1cnc(NCCCCNc2ncc(C)c(-c3ccccc3O)n2)nc1-c1ccccc1O`, the T/C by setting is: under setting [6], 101 % of control; under setting [7], 101 % of control; under setting [8], 89 % of control.

Take `CC1(C)OC(=O)C2(O1)C(=O)C1CCCCC12C` (stereo not drawn): the T/C under setting [3] is 100 % of control, the T/C under setting [9] was 95 % of control and the T/C under setting [10] is 95 % of control.

Consider `COC(=O)C1(C)CCCC2(C)C3=CC(=O)OC3(OC)CCC12` (stereo not drawn), for which the T/C by setting is: (dose: 2.5 mg/kg/injection, schedule: Q01DX009 (ip), vehicle: saline with Tween-80) 107 % of control; (dose: 5.0 mg/kg/injection, schedule: Q01DX009 (ip), vehicle: saline with Tween-80) 101 % of control; (dose: 10.0 mg/kg/injection, schedule: Q01DX009 (ip), vehicle: saline with Tween-80) 103 % of control.

For the molecule `c1ccc(-c2cc(Nc3ccc4c(c3)OCO4)c3cc4c(cc3n2)OCO4)cc1`, the T/C is 101 % of control under setting [6], 101 % of control under setting [7] and 97 % of control under setting [8].

With `CONC(=O)Cc1cccc(OC)c1`, the T/C by setting is: under setting [5], 104 % of control; under setting [1], 114 % of control; under setting [2], 98 % of control.

Turning to `Oc1cccc([C@@]23CCCC[C@H]2CN(CC2CC2)CC3)c1`, the T/C was 90 % of control under setting [11] and 111 % of control under setting [12].

As to `O=C(Nc1ccc(Cl)cc1)Nc1nnc2nc(CC(=O)c3ccc4ccccc4c3)c(=O)[nH]n12`, the T/C by setting is: under setting [3], 97 % of control; under setting [9], 99 % of control; under setting [10], 97 % of control.

`CCCCCCC(O)CCC(O)CCCCCCCC(=O)O` (stereo not drawn): the T/C reads like this: under setting [1], 103 % of control; under setting [2], 92 % of control; under setting [4], 100 % of control.
